Consider 32 compounds from patent US20190119282A1, “IMIDAZOPYRIDAZINES USEFUL AS INHIBITORS OF THE PAR-2 SIGNALING PATHWAY” (Vertex Pharmaceuticals Incorporated, priority 2013, published 2019).

Experiment [1] concerns the target T1, PAR2 (HT-29 cells, SLIGKV activation) (Homo sapiens, UniProt P55085).
T1 construct: host or cells: HT-29 cells
T1 sequence (P55085 26-397): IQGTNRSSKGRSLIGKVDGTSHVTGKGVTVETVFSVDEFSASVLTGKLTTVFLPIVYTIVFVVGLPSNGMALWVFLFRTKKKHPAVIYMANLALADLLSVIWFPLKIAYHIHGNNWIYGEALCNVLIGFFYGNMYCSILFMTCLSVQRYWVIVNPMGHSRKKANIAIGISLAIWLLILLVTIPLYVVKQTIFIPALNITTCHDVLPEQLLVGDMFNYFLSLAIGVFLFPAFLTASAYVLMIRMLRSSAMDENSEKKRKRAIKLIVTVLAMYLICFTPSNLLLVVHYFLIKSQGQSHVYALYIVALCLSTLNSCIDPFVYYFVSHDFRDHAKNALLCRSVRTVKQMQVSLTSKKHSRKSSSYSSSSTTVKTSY
The experiment in a line: Ca FLIPR TETRA assay, ANTAGONIST mode, stimulation with 8 μM SLIGKV. The experiment is classed as cell-based. As to conditions: HT-29 cells, antagonist mode, stimulation with 8 μM SLIGKV. Put shortly:
(§1)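 Antagonist-mode FLIPR Tetra Ca2+ readout: after 30 min r.t. compound pre-incubation, HT-29 cells are challenged with trypsin (3.1 U/mL final), SLIGKV (8 μM), thrombin (1 U/mL) or UTP (0.6 μM). Cells were plated overnight in 1% FBS medium and dye-loaded with Calcium 5; an initial read checks compound agonism.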

Experiment [2] deals with T2, PAR2 (HT-29 cells, trypsin activation) (Homo sapiens, UniProt P55085).
T2 construct: host or cells: HT-29 cells
T2 sequence (P55085 26-397): T1 sequence (P55085 26-397)
The experiment in a line: Ca FLIPR TETRA assay, ANTAGONIST mode, stimulation with 3.1 U/mL trypsin. The note with it: HT-29 cells, antagonist mode, stimulation with 3.1 U/mL trypsin. The format is cell-based. Put shortly: as §1

In experiment [3] the test system is Thrombin-stimulated Ca2+ response in HT-29 cells. As to the kind of experiment: Ca FLIPR TETRA assay, ANTAGONIST mode, stimulation with 1 U/mL Thrombin. The format is cell-based, human. As to conditions: Homo sapiens; HT-29 cells, antagonist mode, stimulation with 1 U/mL Thrombin. In short, it runs like this:
as §1

In experiment [4] the test system is UTP-stimulated Ca2+ response in HT-29 cells. The experiment in a line: Ca FLIPR TETRA assay, ANTAGONIST mode, stimulation with 0.6 μM UTP. The experiment is classed as cell-based, human. As to conditions: Homo sapiens; HT-29 cells, antagonist mode, stimulation with 0.6 μM UTP. In short, it runs like this:
as §1

With `CC(C)c1cc(-c2ccc(C(F)F)cc2)nn2cc(C(=O)N3CCN(C(=O)c4cn[nH]c4)CC3(C)C)nc12` [Compound I-295], the 50% inhibitory concentration (IC50) in experiment [1] is 7.5 nM; in experiment [2] it was 8.3 nM; in experiment [3], over 1000 nM; in experiment [4] it was over 1000 nM.
For the compound `CC(C)(C)c1cc(-c2ccc(F)cc2)nn2cc(C(=O)N3CCN(C(=O)c4nnn[nH]4)CC3(C)C)nc12` [Compound I-296], the IC50 is 32 nM in experiment [1], 44.7 nM in experiment [2], over 1000 nM in experiment [3] and over 1000 nM in experiment [4].
For `CC(C)(C)c1cc(-c2ccc(F)cc2)nn2cc(C(=O)N3CCN(C4(CO)CC4)C(=O)C3(C)C)nc12` [Compound I-297], the IC50 in experiment [1] was 9.1 nM; in experiment [2], 12.7 nM; in experiment [3], 300 nM; in experiment [4] it was over 1000 nM.
For `Cc1ccc(-c2cc(C(C)(C)C)c3nc(C(=O)N4CCNC(=O)C4(C)C)cn3n2)cc1F` [Compound I-298], in that order: 2.3 nM, 1.8 nM, over 1000 nM and over 1000 nM.
Regarding `Cc1nnc(C(=O)N2CCN(C(=O)c3cn4nc(-c5ccc(C(F)F)cc5)cc(C(C)C)c4n3)C(C)(C)C2)o1` [Compound I-299], the 50% inhibitory concentration (IC50) in experiment [1] is 37.3 nM; in experiment [2] it was 53 nM; in experiment [3], over 1000 nM; in experiment [4], over 1000 nM.
On to `CC(C)c1cc(-c2ccc(C(F)F)cc2)nn2cc(C(=O)N3CCNC(=O)C3(C)C)nc12` [Compound I-300], for which the IC50 in experiment [1] was 27.7 nM; in experiment [2], 26.5 nM; in experiment [3] it was over 1000 nM; in experiment [4] it was over 1000 nM.
As for `Cc1ccc(-c2cc(C(C)C)c3nc(C(=O)N4CCNC(=O)C4(C)C)cn3n2)cc1F` [Compound I-301], the IC50 is 3 nM in experiment [1], 3 nM in experiment [2], over 1000 nM in experiment [3] and over 1000 nM in experiment [4].
`Cc1c[nH]nc1C(=O)N1CCN(C(=O)c2cn3nc(-c4ccc(F)cc4)cc(C(C)C)c3n2)C(C)(C)C1` [Compound I-302]: the 50% inhibitory concentration (IC50) was found to be 10.3 nM in experiment [1], 13 nM in experiment [2], 1100 nM in experiment [3] and 900 nM in experiment [4].
For `Cc1n[nH]cc1C(=O)N1CCN(C(=O)c2cn3nc(-c4ccc(F)cc4)cc(C(C)C)c3n2)C(C)(C)C1` [Compound I-304], in that order: 40.3 nM, 54.3 nM, over 1000 nM and over 1000 nM.
For `CC(C)c1cc(-c2ccc(F)cc2)nn2cc(C(=O)N3CCN(C(=O)CC(C)(C)O)CC3(C)C)nc12` [Compound I-305], in that order: 33 nM, 45 nM, over 1000 nM and over 1000 nM.
In the same order, the values of `CC(C)c1cc(-c2ccc(F)cc2)nn2cc(C(=O)N3CCN(C(=O)c4ccnnc4)CC3(C)C)nc12` [Compound I-306] are 68 nM, 185 nM, over 1000 nM and over 1000 nM.
Regarding `CC(C)c1cc(-c2ccc(F)cc2)nn2cc(C(=O)N3CCN(C(=O)c4cccnn4)CC3(C)C)nc12` [Compound I-307], the IC50 in experiment [1] was 52.8 nM; in experiment [2], 42 nM; in experiment [3] it was over 1000 nM; in experiment [4], over 1000 nM.
As for `CC(C)c1cc(-c2ccc(F)cc2)nn2cc(C(=O)N3CCN(C(=O)c4ccncc4)CC3(C)C)nc12` [Compound I-308], the IC50 in experiment [1] is 28 nM; in experiment [2] it was 33.5 nM; in experiment [3], over 1000 nM; in experiment [4], over 1000 nM.
For `CC(C)c1cc(-c2ccc(F)cc2)nn2cc(C(=O)N3CCN(C(=O)c4cccnc4)CC3(C)C)nc12` [Compound I-309], the IC50 in experiment [1] was 17.5 nM; in experiment [2] it was 19 nM; in experiment [3], over 1000 nM; in experiment [4] it was over 1000 nM.
Take `Cc1nc[nH]c1C(=O)N1CCN(C(=O)c2cn3nc(-c4ccc(F)cc4)cc(C(C)(C)C)c3n2)C(C)(C)C1` [Compound I-311]: the IC50 in experiment [1] is 6.8 nM; in experiment [2], 4.1 nM; in experiment [3], over 1000 nM; in experiment [4] it was over 1000 nM.
For `Cc1ncc(C(=O)N2CCN(C(=O)c3cn4nc(-c5ccc(F)cc5)cc(C(C)(C)C)c4n3)C(C)(C)C2)[nH]1` [Compound I-312], the IC50 in experiment [1] was 1.3 nM; in experiment [2], 1.3 nM; in experiment [3], over 1000 nM; in experiment [4] it was over 1000 nM.
Take `CC(C)c1cc(-c2ccc(F)cc2)nn2cc(C(=O)N3CCN(C(=O)C(C)(O)C(F)(F)F)CC3(C)C)nc12` (centres unmarked) [Compound I-313]: the IC50 is 15.2 nM in experiment [1], 11.4 nM in experiment [2], over 1000 nM in experiment [3] and over 1000 nM in experiment [4].
For the compound `CC(C)c1cc(-c2ccc(F)cc2)nn2cc(C(=O)N3CCN(C(=O)C(C)(N)C(F)(F)F)CC3(C)C)nc12` (centres unmarked) [Compound I-314], the IC50 in experiment [1] was 10.4 nM; in experiment [2], 7.6 nM; in experiment [3] it was over 1000 nM; in experiment [4], over 1000 nM.
As for `CC(C)(C)c1cc(-c2ccc(F)cc2)nn2cc(C(=O)N3CCN(C(=O)C(C)(O)C(F)(F)F)CC3(C)C)nc12` (centres unmarked) [Compound I-317], the IC50 in experiment [1] was 3.4 nM; in experiment [2] it was 2.9 nM; in experiment [3], over 1000 nM; in experiment [4] it was over 1000 nM.
As for `CC(C)(C)c1cc(-c2ccc(F)cc2)nn2cc(C(=O)N3CCN(C(=O)C(C)(N)C(F)(F)F)CC3(C)C)nc12` (centres unmarked) [Compound I-318], the IC50 was 1.7 nM in experiment [1], 2.2 nM in experiment [2], over 1000 nM in experiment [3] and over 1000 nM in experiment [4].
Take `CC(C)(C)c1cc(-c2ccc(F)cc2)nn2cc(C(=O)N3CCN(C(=O)[C@H]4C[C@@](C)(O)C4)CC3(C)C)nc12` [Compound I-319]: the IC50 in experiment [1] came out at 0.4 nM; in experiment [2] it was 0.6 nM; in experiment [3], 760 nM; in experiment [4], 950 nM.
In the same order, the values of `CC(C)c1cc(-c2ccc(F)cc2)nn2cc(C(=O)N3CCN(C(=O)c4ccccn4)CC3(C)C)nc12` [Compound I-320] are 7.1 nM, 14.2 nM, over 1000 nM and over 1000 nM.
In the same order, the values of `CC(C)c1cc(-c2ccc(F)cc2)nn2cc(C(=O)N3CCN(C(=O)c4ccon4)CC3(C)C)nc12` [Compound I-321] are 1.5 nM, 2.8 nM, over 1000 nM and over 1000 nM.
For `CC(C)c1cc(-c2ccc(F)cc2)nn2cc(C(=O)N3CCN(C(=O)c4cncnc4)CC3(C)C)nc12` [Compound I-322], in that order: 41.5 nM, 69 nM, over 1000 nM and over 1000 nM.
Consider `CC(C)c1cc(-c2ccc(F)cc2)nn2cc(C(=O)N3CCN(C(=O)c4ncccn4)CC3(C)C)nc12` [Compound I-323], for which the IC50 in experiment [1] is 20.5 nM; in experiment [2], 55.5 nM; in experiment [3], over 1000 nM; in experiment [4] it was over 1000 nM.
On to `Cc1nnc(C(=O)N2CCN(C(=O)c3cn4nc(-c5ccc(F)cc5)cc(C(C)C)c4n3)C(C)(C)C2)o1` [Compound I-324], for which the concentration for half-maximal inhibition (IC50) was 21.1 nM in experiment [1], 22.5 nM in experiment [2], over 1000 nM in experiment [3] and over 1000 nM in experiment [4].
With `CC(F)(F)c1cc(-c2ccc(F)cc2)nn2cc(C(=O)N3CCNC(=O)C3(C)C)nc12` [Compound I-325], the IC50 in experiment [1] is 55.5 nM; in experiment [2] it was 110 nM; in experiment [3], over 1000 nM; in experiment [4] it was over 1000 nM.
Regarding `CC(C)c1cc(-c2ccc(F)cc2)nn2cc(C(=O)N3CCN(C(=O)c4c[nH]cn4)CC3(C)C)nc12` [Compound I-326], the IC50 in experiment [1] is 17 nM; in experiment [2], 12 nM; in experiment [3], over 1000 nM; in experiment [4], over 1000 nM.
For the compound `CC(C)c1cc(-c2ccc(F)cc2)nn2cc(C(=O)N3CCN(C(=O)c4cn[nH]c4)CC3(C)C)nc12` [Compound I-327], the IC50 is 5.6 nM in experiment [1], 5.9 nM in experiment [2], over 1000 nM in experiment [3] and over 1000 nM in experiment [4].
On to `Cc1cc(-c2cc(C(C)(C)C)c3nc(C(=O)N4CCNC(=O)C4(C)C)cn3n2)ccc1F` [Compound I-329], for which the IC50 in experiment [1] was 5.9 nM; in experiment [2], 2.8 nM; in experiment [3], over 1000 nM; in experiment [4], over 1000 nM.
Consider `Cc1ccc(-c2cc(C(C)C)c3nc(C(=O)N4CCN(C(=O)c5cc(C)n[nH]5)CC4(C)C)cn3n2)cc1` [Compound I-330], for which the half-inhibitory concentration (IC50) is 1.7 nM in experiment [1], 1.4 nM in experiment [2], over 1000 nM in experiment [3] and over 1000 nM in experiment [4].
With `Cc1ccc(-c2cc(C(C)C)c3nc(C(=O)N4CCN(C(=O)c5nc[nH]n5)CC4(C)C)cn3n2)cc1` [Compound I-331], the IC50 in experiment [1] is 11.4 nM; in experiment [2] it was 6.9 nM; in experiment [3], over 1000 nM; in experiment [4], over 1000 nM.
